Measured values as given in PubChem BioAssay (NCI).
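Briefly, cells in 96-well plates were exposed to five compound concentrations for 48 h, and endpoints were estimated by linear interpolation. Here, GI50 denotes the concentration required for 50% inhibition of growth. At the TGI there is no net growth.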

What was measured:
Experiment in all cases: growth of human tumour cells (NCI), 48 h
HCT-116 colon = test system: HCT-116 colon
HOP-92 NSCLC = test system: HOP-92 NSCLC
SF-268 CNS = test system: SF-268 CNS
SF-295 CNS = test system: SF-295 CNS
SK-OV-3 ovarian = test system: SK-OV-3 ovarian
SNB-19 CNS = test system: SNB-19 CNS
A549 NSCLC = test system: A549 NSCLC
HL-60(TB) leukemia = test system: HL-60(TB) leukemia
KM12 colon = test system: KM12 colon
NCI-H522 lung = test system: NCI-H522 lung

Compound | GI50 (HCT-116 colon) [µM] | TGI (HCT-116 colon) [µM] | GI50 (HOP-92 NSCLC) [µM] | TGI (HOP-92 NSCLC) [µM] | GI50 (SF-268 CNS) [µM] | TGI (SF-268 CNS) [µM] | GI50 (SF-295 CNS) [µM] | TGI (SF-295 CNS) [µM] | GI50 (SK-OV-3 ovarian) [µM] | TGI (SK-OV-3 ovarian) [µM] | GI50 (SNB-19 CNS) [µM] | TGI (SNB-19 CNS) [µM] | TGI (A549 NSCLC) [µM] | TGI (HL-60(TB) leukemia) [µM] | TGI (KM12 colon) [µM] | GI50 (HL-60(TB) leukemia) [µM] | GI50 (KM12 colon) [µM] | GI50 (A549 NSCLC) [µM] | GI50 (NCI-H522 lung) [µM] | TGI (NCI-H522 lung) [µM]
O=[N+]([O-])c1ccc(C=C2C(Cl)=C(Cl)C(Cl)=C2Cl)cc1 | 1.79 | 3.37 | 2.05 | 4.58 | 2.01 | 4.4 | 3.47 | 76.6 | 12.1 | 29.9 | 9.68 | > 100 | – | – | – | – | – | – | – | –
Cc1cc(=O)[nH]c(NN2C(Cl)C(=O)C2c2cccc(O)c2)n1 (stereo not drawn) | – | > 100 | – | > 100 | – | > 100 | – | – | – | – | – | > 100 | > 100 | 29.8 | > 100 | – | – | – | – | –
COc1ccc(C2CC(c3cccc(Nc4ccncc4)c3)=NN2c2cc(Cl)cc(Cl)c2)cc1 (stereo not drawn) | – | – | 1.25 | 2.67 | 2.2 | 5.62 | 1.73 | 3.14 | 11.3 | 31.4 | – | – | – | 5.12 | 3.3 | 2.17 | 1.77 | – | – | –
Cc1ccc2c(n1)C(=O)c1[nH]c3ccccc3c1C2=O | – | – | 2.92 | 29 | 3.82 | > 100 | 0.761 | 2.05 | 4.95 | > 100 | 2.7 | > 100 | 4.37 | 9.43 | 19.6 | 2.67 | 3.1 | 1.61 | 2.48 | 9.05
c1ccc(N=C2SC(=NC3CCCCC3)N(C3CCCCC3)C2=Nc2ccccc2)cc1 | – | > 100 | – | – | – | – | – | > 100 | – | > 100 | – | > 100 | – | > 100 | > 100 | – | – | – | – | > 100
CC(=O)OC1CCC2(C)C3CCC4(C)C(c5ccc(=O)oc5)CC5OC54C3CCC2(O)C1 (stereo not drawn) | – | 4.61 | – | 7.59 | – | 2.57 | – | 5.63 | – | 10.2 | – | 31.8 | 2.15 | 1.48 | 10.7 | – | – | – | – | 2.04
Cc1nc(N)sc1-c1ccnc(Nc2ccc(N3CCOCC3)cc2)n1 | 1.52 | > 100 | – | – | 1.54 | 50.7 | 1.2 | 74.4 | 2.62 | > 100 | > 49.5 | > 100 | > 100 | 6.08 | > 100 | 1.99 | 1.59 | 1.13 | 1.41 | 87.5
CCC[CH2][Ge]([CH2]CCC)([CH2]CCC)[O]C(=O)CC(=O)c1ccccc1 | 0.191 | 12.3 | 0.331 | 9.88 | 4.57 | 21.6 | – | – | 0.667 | 14 | 11.7 | 24 | 15.9 | 11.5 | 16 | 0.138 | 0.883 | 0.735 | 0.261 | 10.4
O=C(OC(=O)n1ccc2ccccc21)n1ccc2ccccc21 | – | > 100 | – | > 100 | – | > 100 | – | > 100 | – | > 100 | – | > 100 | > 100 | > 100 | > 100 | – | – | – | – | –
O=NN(CCCl)C(=O)NC1CCSc2ccccc21 (stereo not drawn) | – | > 100 | – | > 100 | – | > 100 | – | > 100 | – | > 100 | – | > 100 | > 100 | 48.7 | > 100 | – | – | – | – | > 100
COc1ccccc1C1C(C(=O)O)=C(CO)Oc2cc3c(cc21)OCO3 (stereo not drawn) | – | – | – | > 100 | – | > 100 | – | > 100 | – | > 100 | – | > 100 | – | > 100 | – | – | – | – | – | > 100
NCCCNc1nc2ccccc2c2c(=O)c3cc(OC(F)(F)F)ccc3sc12 | – | – | 1.08 | 2.36 | – | – | – | – | – | – | 1.63 | 3.12 | – | 3.59 | – | 1.84 | – | – | – | –
CC1CC=CC(O)C1 (stereo not drawn) | – | > 100 | – | > 100 | – | > 100 | – | > 100 | – | > 100 | – | > 100 | > 100 | > 100 | > 100 | – | – | – | – | > 100
CC(=O)Oc1cccc2c(/C=N/NC(N)=S)ncc(C)c12 | – | 32.6 | – | 32.9 | – | 17.8 | – | 14.4 | – | 17.1 | – | 16.3 | 25.6 | > 100 | 15.5 | – | – | – | – | 32.5
NC(Cc1cccc([N+](=O)[O-])c1)C(=O)O (stereo not drawn) | – | > 100 | – | > 100 | – | > 100 | – | > 100 | – | > 100 | – | > 100 | > 100 | > 100 | > 100 | – | – | – | – | > 100
NC(CCCCP(=O)(O)O)C(=O)O (stereo not drawn) | – | > 100 | – | > 100 | – | > 100 | – | > 100 | – | > 100 | – | > 100 | > 100 | > 100 | > 100 | – | – | – | – | > 100
NNC(N)Nc1ccccc1 (stereo not drawn) | – | – | – | > 100 | – | > 100 | – | > 100 | – | > 100 | – | > 100 | > 100 | > 100 | > 100 | – | – | – | – | > 100
